# Test results taken from US20260097047A1, “Small molecule inhibitors of the ribosome biogenesis factor NVL2” (Board of Regents, The University of Texas System, priority 2023, published 2026).
# Read-outs that look alike come from different tables or passages of the source.
# Tests used:
# HCT116 NVL^P307T cells = assay: Cell viability in compound-resistant HCT116 NVL^P307T cells; type: cell-based, human; conditions: for IC50: Homo sapiens, HCT-116, NVL^P307T
# Source text: Assessing the ability of NVL2 inhibitors to selectively kill WT versus NVL2^mut HCT116, block ribosome biogenesis and induce p53. We evaluate analogs in the colorectal cancer cell line HCT116 and already available compound-resistant clones. One clone has a mutation in the compound binding site (NVL2^R403W) and another clone (NVL2^P307T) has a mutation distant from the binding site that confers resistance through an unknown effect. Based on our results, analogs that kill HCT116 cells via NVL2 inhibition (on-target) have reduced potency in compound-resistant HCT116 mutant clones. Our analogs have been counter-screened against the NVL2 compound-resistant mutant clones with fold resistance range between 10-100 fold (most analogs 20-50 fold). This counter screen provides a strategy for identifying off-target toxins.
# From whole exome sequencing, we identified variants that were acquired during IAA-induced mutagenesis with the hypothesis that genes related to resistance will be mutated in multiple clones. Two genes contained acquired variants in at least 3 of the 15 selected clones: TERT, mutated in 3 of 15 clones, and NVL, mutated in all 15 clones. […] In sum, 57 out of 59 unique clones harbored NVL mutations. The majority of mutations clustered within the D1 AAA+ ATPase domain and frequently affecting the same codons. To test whether these mutations are sufficient for MM017 resistance, we used CRISPR-Cas9 to knock-in two of the most resistant mutations (NVL^P307T, NVL^R403W) and a mutation with intermediate resistance (NVL^H304R). Transfection of cells with sgRNAs targeting these NVL residues in addition to a mutation-encoding repair template yielded an increased rate of resistance when compared to mock treatments.
# HCT116 cells were transfected with TransIT-LT (Mirus #MIR2304) according to manufacturer's protocol with a guide RNA (either mock or NVL targeting) in the px330 vector (Addgene, #42230), and 10 nM single stranded deoxyoligonucleotide encoding a specific NVL mutation (see below for specific sequences). 72 hours after transfection, cells were selected by MM017 treatment. The resulting cells were evaluated by cresyl violet staining or collected and the relevant NVL mutations were analyzed by either amplicon or sanger sequencing.
# Cell viability assay: In 96-well assay plates (Corning #2903), 2,000 cells were plated per well in 100 μL of medium and allowed to adhere overnight. The next day, compounds suspended in DMSO were dispensed to the assayed wells using a D300e Digital Dispenser (Tecan). All wells were normalized to 0.5% DMSO. 72 hours after incubation at 37° C. in 5% CO2, cell viability was assayed using an ATP-based luminescent viability assay, CellTiter-Glo (Promega #G8462). Substrate was mixed 1:1 with phosphate-buffered saline (PBS) supplemented with 1% Triton X-100, and 40 μL of this mixture was added to the assay wells. Plates were shaken on a microplate shaker for 10 minutes at room temperature. Luminescence (CellTiter-Glo) was recorded using a Synergy 2 microplate reader (BioTek). In Prism 9 software (GraphPad), ten-point dose response curves were plotted with baseline-correction to the vehicle control well, and IC50 values were calculated by curve fitting using asymmetric (five parameter), least squares fit.
# [1] = tested on: MM017-resistant iHCT116 clones; assay: Forward genetics: MM017-resistant iHCT116 clones (NVL mutations); type: cell-based, human; conditions: summary statement
# HCT116 cells = assay: Cell viability assay (CellTiter-Glo, 72 hours) in HCT116 human colorectal cancer cells; type: cell-based; conditions: for IC50: Homo sapiens, HCT-116
# Summary of the method: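 2,000 cells/well adhered overnight, then compound added by digital dispenser with DMSO normalized to 0.5%. Viability read after 72 h at 37 °C by ATP-based CellTiter-Glo luminescence. IC50 from ten-point curves baseline-corrected to vehicle, five-parameter asymmetric least-squares fit.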
# HCT116 NVL^R403W tumors = assay: Efficacy study: HCT116 NVL^R403W xenografts; type: in vivo, mouse; conditions: 35 mg/kg IP twice a day for 21 days
# Experimental: (§1) Having established the kinetics of MM927 mediated NVL inhibition in xenograft tumors, we administered 35 mg/kg MM927 IP twice a day for 21 days to mice harboring tumors derived from either HCT116 NVL wild type or NVL^R403W cells. […] Taken together, we concluded that the potent, and bioavailable analog MM927 reduces tumor growth in mouse xenografts by inhibiting NVL without toxicity.
# (§2) Efficacy study: Five million parental HCT116 cells or HCT116 NVL^R403W in a volume of 0.1 mL were implanted in the right flank. Tumor volumes were measured every 2 to 4 days with calipers. Volume is calculated as [(L*W^2)*3.14]/6. When volumes reached ˜110 mm^3, treatment was started with 35 mg/kg MM927 or vehicle control (0.2 mL/mouse) twice a day for 21 days. Mice were euthanized at the end of the 21-day treatment period or when any tumor reached 2 cm in its largest diameter, in agreement with the approved animal protocol. At the end of treatment, blood and tumor tissue were collected for pharmacokinetic analysis, measurement of complete blood counts, and blood chemistry measurements as described. Serum alanine transaminase and blood urea nitrogen were analyzed using VITROS MicroSlide technology.
# [2] = tested on: p53 and p21 in HCT116 NVL^WT tumors; assay: Pharmacodynamic study: p53 and p21 in HCT116 NVL^WT xenograft tumors; type: in vivo, mouse; conditions: 35 mg/kg IP
# Experimental: Plasma exposure was dose-dependent up to 35 mg/kg (IP injection) reaching a maximum concentration at 17.86 μM. These levels exceed the anti-proliferative IC99 of MM927 in cells expressing either human or mouse NVL. In a subsequent pharmacodynamic (PD) study, we asked if we could assess on-target NVL inhibition via a subsequent p53 and/or p21 induction in tumor xenografts in mice treated with MM927. We implanted HCT116 NVL^WT and NVL^R403W cells subcutaneously on either flank of the mice and evaluated the levels of p53 and p21 in either tumor at various time points after IP administration of 35 mg/kg of MM927.
# Pharmacodynamic study: Five million parental HCT116 cells or HCT116 NVL^R403W in a volume of 0.1 mL were implanted using a subcutaneous injection in the left and right side of four-to-eight-week-old male and female NSG mice, respectively. Tumor volumes were measured every 2 to 4 days with calipers. When the tumor diameter reached 0.5 cm in diameter, mice were dosed with 35 mg/kg MM927 or vehicle formulated as 10% DMSO/10% Kolliphor EL/10% Solutal/70% D5W and administered via the intraperitoneal route. At each time point (0, 3, 6, 12, 24 hours post dose), tumors were harvested and flash frozen for Western blot analysis for p53 and p21 as described.
# HCT116 NVL^WT tumors = assay: Efficacy study: HCT116 NVL wild type xenografts; type: in vivo, mouse; conditions: 35 mg/kg IP twice a day for 21 days
# Experimental: as §1, §2
"IC50 (HCT116 cells; NVL^WT, read-out: IC50) [nM]",Compound,resistance of NVL^P307T cells (HCT116 NVL^P307T cells),IC50 (HCT116 NVL^P307T cells) [nM],resistance caused by mutations in NVL2 [1] [fold],"endpoint tumor burden, NVL^R403W (HCT116 NVL^R403W tumors)",rate of growth of NVL^R403W tumors (HCT116 NVL^R403W tumors),potency relative to parent compound MM017 (HCT116 cells; HCT116 proliferation),"IC50 (HCT116 cells; read-out: IC50, HCT116 proliferation) [nM]",p53 and p21 time course in NVL^WT tumor [2],p53 protein levels in NVL^WT tumor [2],"endpoint tumor burden, NVL WT (HCT116 NVL^WT tumors)",rate of growth of NVL^WT tumors (HCT116 NVL^WT tumors)
380,COCCN1C(=O)c2ccccc2Sc2cc(NC(=O)c3ccoc3)ccc21 [MM017],comparatively resistant,> 50000,30,,,,,,,,
,"CC#CCN1C(=O)c2ccc(F)cc2Sc2cc(NC(=O)c3ccc4oc(=O)n(C)c4c3)ccc21 [MM927, N-(10-(But-2-yn-1-yl)-3-fluoro-11-oxo-10,11-dihydrodibenzo[b,f][1,4]thiazepin-7-yl)-3-methyl-2-oxo-2,3-dihydrobenzo[d]oxazole-5-carboxamide]",relatively resistant,1670,,no effect,no significant impact,five times more potent,79,remained elevated at 12 hours and decreased to basal levels by 24 hours,increased 3 hours after injection,significantly reduced NVL WT tumor burden,significantly reduced the rate of growth
